Results from patent US7537765B2, “Inhibition of HIV-1 replication by disruption of the processing of the viral capsid-spacer peptide 1 protein” (priority 2003, dated 2009).
Entries after “also recorded” stand apart in the source; their conditions may differ. Where two headings read alike, the source gives them in different places.

Columns and labels:
[1] = test system: primary Clade B HIV-1 isolates; assay: Virus inhibition assay, primary HIV-1 isolates in PBMC, p24 endpoint; assay type: cell-based
Description: A robust virus inhibition assay was used to evaluate the anti-viral activity of DSB against primary HIV-1 isolates propagated in PMBC. Briefly, serial dilutions of DSB were made in medium into 96-well tissue culture plates. 25-250 TCID50 of virus and 5×10^5 PHA-stimulated PBMCs were added to each well. On days 1, 3 and 5 post-infection, media was removed from each well and replaced with fresh media containing DSB at the appropriate concentration. On day 7 post-infection, culture supernatant was removed from each well for p24 detection of virus replication and 50% inhibitory concentrations (IC50) were calculated by standard methods.

HIV-1 protease = HIV-1 protease (Human immunodeficiency virus type 1 group M subtype B, UniProt P12497); assay type: biochemical; settings: recombinant Gag, 50 μg/mL
HIV-1IIIB = assay: Virus production and Gag processing (western blot) in chronically infected H9/HIV-1IIIB cells; assay type: cell-based
Description: (§1) FIG. 2. […] Gag proteins were visualized using HIV-Ig (HIV-1) or monkey anti-SIVmac251 serum (HIV-2 and SIV; NIH AIDS Research and Reference Reagent Program).
(§2) In order to better define DSB's mechanism of action, a detailed examination was undertaken of the virus produced from HIV-1-infected cell lines treated with DSB. Briefly, H9 cells chronically infected with the HIV-1IIIB isolate were treated with DSB at 1 μg/mL for a period of 48 hrs. Indinavir was used as a control. At the 48 hr time-point, spent media was removed and fresh media containing compound was added. At 24, 48 and 72 hrs post fresh compound addition, both cells and supernatant were recovered for analysis. The level of virus in the culture supernatant was determined and western blots were used to characterize viral protein production in both cell-associated and cell-free virus. […] This defect took the form of an additional band in the western blots corresponding to p25 (FIG. 2). This p25 band results from the incomplete processing of the capsid CA-SP1 precursor. […] As discussed above, mutations at the p25 to p24 cleavage site that prevent processing are associated with defects in viral maturation and infectivity (Wiegers K. et al., J. Virol. 72:2846-54 (1998)).

HIV-2ROD = assay: Gag processing (western blot) in chronically infected H9/HIV-2ROD cells; assay type: cell-based
Description: as §1, §2

[2] = test system: HIV-1 isolates selected for resistance to DSB; assay: Virus replication assay in H9 cells (p24 ELISA), DSB-resistant and parental viruses; assay type: cell-based
Description: Virus stocks derived as described above were further analyzed both phenotypically and genotypically to characterize the nature of their drug-resistance. The resistance of the viruses to 3-O-(3′,3′-dimethylsuccinyl)-betulinic acid (DSB) was determined in virus replication assays. Briefly, the virus stocks were first titered in H9 cells by quantitating the levels of p24 (by ELISA) in cultures 8 days after infection with serial 4-fold dilutions of virus. Virus input was then normalized for a second assay in which each virus is cultured for 8 days in the presence of serial 4-fold dilutions of drug. The IC50 for each virus was determined as the dilution of drug that reduced the p24 endpoint level by 50% as compared to the no-drug control. […] In a subsequent series of experiments, the A364V mutation was engineered into the HIV-1 NL4-3 proviral DNA, which was subsequently transfected into HeLa cells. Resulting virus was collected and used to test the activity of DSB in a viral replication assay, as described above.

[3] = test system: HIV-1 NL4-3 SP1 point deletion mutants; assay: CA-SP1 processing of NL4-3 SP1 point deletion mutants in transfected HeLa cells (Western blot); assay type: cell-based
Description: To characterize the effect of deletion or substitution on viral particle production and Gag polyprotein processing, wild-type HIV-1 NL4-3 or SIVmac239 and respective mutant proviral DNAs were transfected into HeLa cells by employing FuGENE 6 transfection reagent (Roche). Briefly, cells were seeded into a 6-well plate (Corning) at a concentration of 0.5×10^5 per well the day before transfection to reach 60 to 80% confluence on the day of transfection. For each transfection, 3 μl of FuGENE 6 was diluted into 100 μl of serum-free DMEM followed by the addition of 1 μg of DNA. After gently mixing, the mixture of DNA-lipid complexes was gently added drop wise into the cells containing 2 ml of complete DMEM medium. Twenty-four hours post-transfection, medium containing DNA-FuGENE 6 complexes was removed, 2 ml of fresh DMEM was added into the transfected cells. […] The level of viral particle production for wild type NL4-3 and point deletion mutants was determined by p24 antigen capture ELISA (ZeptoMetrix, Buffalo, N.Y.). […]
Sensitivity to DSB was determined in experiments that characterized the effect of DSB on a late step in Gag processing, CA-SP1 cleavage.
Specifically, these assays measured the ability of DSB to disrupt CA-SP1 processing.

HIV = settings: chronically-infected cells, Kanamoto et al.; cited from earlier work

C=C(C)[C@@H]1CC[C@]2(C(=O)O)CC[C@]3(C)[C@H](CC[C@@H]4[C@@]5(C)CC[C@H](OC(=O)CC(C)(C)C(=O)O)C(C)(C)[C@@H]5CC[C@]43C)[C@@H]12 [DSB, 3-O-(3′,3′-dimethylsuccinyl)betulinic acid]
IC50 ([1]; isolate 92HT599, co-receptor X4, PBMC, p24 day 7, read-out: IC50): 9.8 nM
IC50 ([1]; isolate 92US723, co-receptor R5/X4, PBMC, p24 day 7, read-out: IC50): 4.6 nM
IC50 ([1]; isolate 3401N*, co-receptor R5/X4, PBMC, p24 day 7, read-out: IC50): 12 nM
IC50 ([1]; isolate 19101N*, co-receptor R5, PBMC, p24 day 7, read-out: IC50): 3.8 nM
IC50 ([1]; isolate 22101N*, co-receptor R5/X4, PBMC, p24 day 7, read-out: IC50): 2.6 nM
IC50 ([1]; isolate BZ167, co-receptor X4, PBMC, p24 day 7, read-out: IC50): 4 nM
IC50 ([1]; isolate US1, co-receptor R5, PBMC, p24 day 7, read-out: IC50): 5.6 nM
IC50 ([1]; mean over the panel of primary isolates, read-out: IC50, Mean): 6.1 nM
effect on protease-mediated Gag protein processing (HIV-1 protease): did not disrupt protease-mediated Gag protein processing; also recorded: does not disrupt the activity of HIV-1 protease
Gag processing (p25 band in western blot) (HIV-1IIIB; 1 μg/mL, cell-associated and cell-free virus): defect in Gag processing
amount of virus produced (HIV-1IIIB; 1 μg/mL, chronically infected H9 cells): did not cause a significant reduction in the amount of virus produced
effect on virus release (HIV-1IIIB; a variety of experimental systems): does not have a significant effect on virus release
antiviral activity (HIV-2ROD; HIV-2): lack of antiviral activity
Gag processing (HIV-2ROD; HIV-2 chronically infected cell line, 1 μg/mL): normal Gag processing
IC50 ([2]; NL4-3 with engineered A364V mutation (DSB-resistant virus)): 100 nM
IC50 ([2]; two independently derived DSB-selected virus stocks): > 2000 nM
IC50 ([2]; virus cultured in parallel in the absence of drug): 20 nM
IC50 ([2]; wild-type NL4-3): 10 nM
effect on CA-SP1 processing ([3]; point deletions starting with residue T372 and extending away from the cleavage site, 1 μg/ml): fully sensitive to DSB-induced disruption of CA-SP1 processing
effect on CA-SP1 processing ([3]; single residue deletion at any of positions E365 through V370, 1 μg/ml): significantly reduces the affect of DSB on CA-SP1 processing
release of virus (HIV): inhibits release of virus from chronically-infected cells
